From patent US20230355602A1, “TREATMENT AND/OR PREVENTION OF A VIRAL INFECTION” (priority 2020, published 2023)

Legend:
[1] = test system: Dengue virus (serotypes 1, 2, 3 or 4); experiment: Dengue virus assay in Huh7 cells (viral titer); format: cell-based
SARS-CoV-2-Nluc viruses = experiment: microbe, parasite or virus in culture; format: cell-based
[2] = test system: SARS-CoV-2 (hCoV-19/Singapore/10/2020); experiment: Dose-dependent inhibition assay with plaque assay titration in Vero E6 cells; format: cell-based
CHIKV = experiment: Chikungunya virus assay in Huh7 cells (viral titer); format: cell-based
in vitro [3] = format: cell-based; conditions: human
Protocol: (§1) 12k cells (A549) per well in a 96-well plate. The compounds are added on the next day. 48 hrs treatment. 3-fold serial dilution for ASLAN 003 starting from 10 μM.

A549 cells = experiment: in vitro; format: cell-based; conditions: human, 48 h
Protocol: as §1

clinical = conditions: human, in vivo
Zika virus = Zika virus assay in Huh7 cells (viral titer); format: cell-based
[4] = human, in vivo
in vitro [5] = format: cell-based; conditions: African green monkey
Protocol: Vero E6 cells were treated with the above compounds ata range of concentrations (0.0001, 0.001, 0.01, 1,10, 30, 50, and 100 μM) and incubated for 4 days. After incubation, the media was removed from the plates and washed once with PBS before addition of alamarBlue Cell Viability Reagent (Thermo Fisher Scientific) diluted 1:10 in media with 2% FCS. Fluorescence was detected after 2.5 h incubation at an excitation wavelength of 570 nm and an emission wavelength of 600 nm on an Infinite 200 Pro multiplate reader (Tecan). Data obtained from compound-treated cells and vehicle-treated cells were normalised against those obtained from untreated cells.

[6] = Severe acute respiratory syndrome coronavirus 2, Vero C1008, 96 h

COc1cccc(-c2cc(F)c(Nc3ncccc3C(=O)O)c(F)c2)c1 [ASLAN003, 2-(3,5-difluoro-3′-methoxybiphenyl-4-ylamino) nicotinic acid]
efficacy (potency) against Dengue [1]: sub-micromolar potency | efficacy (potency) against SARS-CoV-2 (SARS-CoV-2-Nluc viruses): sub-micromolar potency | IC50 (SARS-CoV-2-Nluc viruses; Severe acute respiratory syndrome coronavirus 2, 48 h, read-out: SARS-COV-2 Reporter Assay (IC50, μM)): 0.812 µM | EC50 [2, 6]: 0.00142 µM | EC90 [2, 6]: 0.00388 µM | inhibition of SARS-CoV-2 in Vero E6 cells (viral titre) ([2]; treated post virus infection, 0.0001 to 100 μM): Dosage dependent inhibition | efficacy (potency) against Chikugunya (CHIKV): sub-micromolar potency | IC50 at 48 h (in vitro [3]): > 10 µM | IC50 (A549 cells): > 10 µM | change in A549 cell viability (A549 cells): no change in A549 cell viability | half-life (clinical): 18 h | efficacy (potency) against Zika (Zika virus): sub-micromolar potency | PK profiles in Asian and Caucasian patients [4]: equivalent | safety and tolerability, liver enzyme rises [4]: safe and well-tolerated with no evidence of significant liver enzyme rises | time until full exposure is achieved [4]: ≤ 24 h | CC50 at 4 days (in vitro [5]): 87.2 µM
